Here are results for nine compounds from patent US9029332B2, “Cross-linked peptides and proteins, methods of making same, and uses thereof” (The Research Foundation for The State University of New York, priority 2010, dated 2015).

Numbered stars: 1 amine (or outer) side, 2 acyl side, 3 side chain; on linkers, the order of the positions; unused ones are H or OH. Bridge positions count the residues as written; N and C are the ends. Square brackets hold non-standard residues; d marks the D form. Ends that are not written are not given here. Peptide text beside a SMILES is read from it. BMA = bismethylene aryl moiety linked through two thioether bonds; CH2(3,3'-bipyridine-6,6')CH2 = c1cc(C[*:1])ncc1-c1ccc(C[*:2])nc1; Biphenyl(4,4'-CH2)2 = c1cc(-c2ccc(C[*:2])cc2)ccc1C[*:1] Bounds are passed on as bounds.

One series concerns the target GST-Bcl-xL (Homo sapiens, UniProt Q07817). Description: FP binding affinity of fluorescein-labeled peptides, Bcl-xL.
For series [1], the system named is HeLa cells. Description: FACS analysis of cell permeability of fluorescein-conjugated peptides. The class given is cell-based. Conditions: 10 μM fluorescein-conjugated peptide, 2 h. The procedure: FACS Analysis. HeLa Cells were cultured in DMEM medium supplemented with 10% fetal bovine serum in 6-well plate in a 37° C., 5% CO2 incubator to reach confluency of around 70%. The cells were then washed twice with PBS before switching to serum-free DMEM medium. After standing in the incubator for 30 minutes, appropriate amounts of peptides (1 mM in DMSO) were added to the culture plate to obtain a final peptide concentration of 10 μM. Cells were incubated at 37° C. for additional 2 hrs. Then the medium was removed and the cells were washed with PBS (3×) followed by treatment with trypsin to detach the cells. After a brief low-speed centrifugation, the HeLa cells were collected and re-suspended in PBS for the FACS analysis.
On the technique in general: In flow cytometry, cells or beads pass a laser one at a time.

The subject of series [2] is HeLa cells. Description: Cell viability assay (CellTiter-Glo, ATP) and DIC imaging, cytotoxicity. The class given is cell-based. Conditions: 10 μM, 2 hours; DIC channel and ATP assay. The procedure:
FIG. 8. (a) Confocal images of fixed HeLa cells after treatment with 10 μM of fluorescein-conjugated peptides for 2 hours. Scale bar=50 μm. (b) Cell viability assay using the CellTiter-Glo reagent.
Cell Viability Assay. HeLa cells were seeded into an opaque 96-well plate at a density of 1×10^4 per well in 100 μL DMEM medium supplemented with 10% FBS and the cells were allowed to grow in a 37° C. 5% CO2 incubator for 48 hrs to reach confluency of around 80%. Prior to the compound treatment, the medium was replaced with serum-free medium and the cells were incubated for 30 minutes. Appropriate amounts of peptides (1 mM in DMSO) were then added to obtain a final concentration of 10 μM and the cells were incubated at 37° C. for 2 hours. Afterwards, the plate was allowed to stand at room temperature for 30 minutes before 100 μL of Cell-Titer Glow reagent (Promega) was added. The plate was incubated at room temperature for 10 minutes. The luminescence signals were recorded with an FLX 800 luminescence plate reader (BioTek). The plotted data represented the average of the readings from 4 separate wells.
A general note: In ATP-based viability assays light output follows the ATP content of the culture.

For series [3], the target named is T1, full-length human MDMX (GST-MDMX) (Homo sapiens, UniProt O15151).
T1 construct: GST-MDM2 and GST-MDMX containing full-length human MDM2 and MDMX; made in house; host or cells: Escherichia coli
T1 sequence (O15151 1-490): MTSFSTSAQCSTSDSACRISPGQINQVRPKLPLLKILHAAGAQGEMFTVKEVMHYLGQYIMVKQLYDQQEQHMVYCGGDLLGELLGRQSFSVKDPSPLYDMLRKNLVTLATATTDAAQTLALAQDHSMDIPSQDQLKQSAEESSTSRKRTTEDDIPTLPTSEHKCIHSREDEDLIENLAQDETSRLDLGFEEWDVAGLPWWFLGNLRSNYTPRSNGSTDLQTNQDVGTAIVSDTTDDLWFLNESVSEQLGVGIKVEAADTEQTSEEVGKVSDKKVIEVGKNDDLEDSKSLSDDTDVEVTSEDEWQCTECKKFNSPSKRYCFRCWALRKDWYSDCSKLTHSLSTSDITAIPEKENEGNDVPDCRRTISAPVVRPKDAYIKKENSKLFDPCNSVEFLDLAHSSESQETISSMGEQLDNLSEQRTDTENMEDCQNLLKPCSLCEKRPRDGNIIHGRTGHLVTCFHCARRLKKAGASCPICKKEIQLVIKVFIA
Description: ELISA, inhibition of p53-MDMX interaction. The format is binding. Conditions: relative to linear counterpart 3. From the text: FIG. 10. ELISA data of the cross-linked PDI analogs. The experiments were repeated three times and the resulting data were plotted with GraphPad Prism 5.0 to derive the average IC50 values along with standard deviations.
ELISA Assay. GST-MDM2 and GST-MDMX containing full-length human MDM2 and MDMX and His6-tagged human p53 were expressed in Escherichia coli and purified by glutathione agarose and Ni^2+-nitrilotriacetic acid beads, respectively, under non-denaturing conditions. Microtiter plates were coated with 2.5 μg/ml His6-p53 in PBS buffer for 16 hours. After washing with PBS containing 0.1% Tween-20 (PBST), the plates were blocked with PBST containing 5% nonfat dry milk (PBSTM) for 30 minutes. Peptides were dissolved in DMSO. GST-MDM2 and MDMX (5 μg/ml) were mixed with peptides in PBSMT containing 10% glycerol and 10 mM dithiolthreitol prior to their additions to the wells at the specified concentrations. The incubation was allowed to proceed for 1 hour at room temperature before the plates were washed with PBST. […] The plates were developed by incubation with TMB peroxidase substrate (KPL, Gaithersburg, Md.) and measured by absorbance at 450 nm. The data was analyzed with the Origin 6.0 software. […]
In general terms: An ELISA detects its analyte on a solid surface through an enzyme-linked reagent.

The nature of series [4]: Circular dichroism, percent helicity. The class given is physicochemical. Conditions: compared to the linear NoxaBH3 peptide, 50 μM in 20% ACN/H2O. How it is done:
FIG. 12. […] The peptides were dissolved in 20% ACN/H2O for a final concentration of 50 μM.
Circular Dichroism Study. […] The spectra were recorded in the wavelength range of 190-250 nm and averaged over 3 scans with a resolution of 0.5 nm, a bandwidth of 1.0 nm and a response time of 4 s. The sensitivity and the speed of the spectrometer were set to 100 mdeg and 50 nm/min, respectively. All peptides were dissolved in 20% acetonitrile/H2O to reach final concentration of 50 μM.

Series [5] concerns the target Mcl-1 (Homo sapiens, UniProt Q07820). Description: ELISA of cross-linked Noxa peptides. The format is binding.
The next series addresses GST-Mcl-1 (Homo sapiens, UniProt Q07820). Description: Competitive fluorescence polarization assay. The class given is binding. To be noted: for IC50: Noxa peptides, three repeats ± SD, read-out: FP, IC50. How it is done: Competitive Florescence Polarization Assay. The binding affinity of the Noxa peptides toward GST-Mcl-1 was determined in a competitive fluorescence polarization assay with the fluorescein-labeled Bak or Bim. Briefly, fluorescein-labeled Bak was incubated with GST-Mcl-1 in a binding buffer (PBS, 0.005% Tween-20, pH7.4) at room temperature in a 96-well microtiter plate. […] The reading was repeated at various time points to ensure that the competition has reached equilibrium.

The target of a further series is chymotrypsin (Bos taurus, UniProt P00766). Description: Chymotrypsin proteolytic stability assay. Conditions: cattle (bovine), chymotrypsin (Type II, Sigma) in NH4HCO3 buffer, pH 8.
Series [6] addresses Mcl-1 (Mus musculus, UniProt P97287). To be noted: background literature; read-out: IC50 against Mcl-1; cited from earlier work.

Sequence of GST-Mcl-1 (Q07820 whole entry): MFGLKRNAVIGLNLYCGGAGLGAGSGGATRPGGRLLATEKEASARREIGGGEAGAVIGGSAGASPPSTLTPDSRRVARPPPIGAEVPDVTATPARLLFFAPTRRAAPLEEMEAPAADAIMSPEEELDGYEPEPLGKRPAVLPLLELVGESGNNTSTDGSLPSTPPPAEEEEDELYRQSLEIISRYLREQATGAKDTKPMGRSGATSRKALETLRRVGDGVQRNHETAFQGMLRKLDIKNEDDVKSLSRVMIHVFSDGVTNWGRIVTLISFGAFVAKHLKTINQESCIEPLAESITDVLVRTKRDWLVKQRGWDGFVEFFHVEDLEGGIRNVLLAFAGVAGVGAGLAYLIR
Sequence of Mcl-1 (Homo sapiens, UniProt Q07820) (Q07820 whole entry, species assumed): as the sequence (Q07820 whole entry) above
Sequence of Mcl-1 (Mus musculus, UniProt P97287) (P97287 152-308 limits assumed): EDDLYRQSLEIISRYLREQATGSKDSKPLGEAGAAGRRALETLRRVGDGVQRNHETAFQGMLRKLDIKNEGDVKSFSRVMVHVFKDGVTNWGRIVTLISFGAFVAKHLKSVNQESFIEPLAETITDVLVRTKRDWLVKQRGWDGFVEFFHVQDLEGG
Sequence of GST-Bcl-xL (Q07817 whole entry): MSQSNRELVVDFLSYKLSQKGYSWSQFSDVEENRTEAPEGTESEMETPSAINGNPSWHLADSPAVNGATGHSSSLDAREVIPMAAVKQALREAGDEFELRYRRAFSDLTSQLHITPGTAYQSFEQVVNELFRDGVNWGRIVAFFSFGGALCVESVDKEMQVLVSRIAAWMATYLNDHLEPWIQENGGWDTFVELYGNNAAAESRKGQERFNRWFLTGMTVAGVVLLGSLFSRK
Description for chymotrypsin: Proteolytic stability of the linear and stapled Noxa peptides against trypsin (Type IX-S, 13,000-20,000 unit/mg, Sigma) and chymotrypsin (Type II, 40 unit/mg, Sigma). To a solution of 400 μL of 0.25 mM peptide in NH4HCO3 buffer, pH 8.0, was added 80 μL trypsin (5 μg/mL) or chymotrypsin (25 μg/mL), and the resulting solution was incubated at 37° C. At the indicated times, 40 μL of the solution was transferred to 40 μL trifluoroacetic acid to quench the reaction. The samples were analyzed by reverse-phase HPLC using benzophenone as an injection control.

The compound `CC[C@H](C)[C@H](NC(=O)[C@H](CCCNC(=N)N)NC(=O)[C@H](CCCNC(=N)N)NC(=O)[C@H](CC(C)C)NC(=O)[C@H](CCC(N)=O)NC(=O)[C@H](C)NC(=O)[C@H](C)NC(=O)CCCCCNC(=S)Nc1ccc2c(c1)C(=O)OC21c2ccc(O)cc2Oc2cc(O)ccc21)C(=O)NCC(=O)N[C@@H](CC(=O)O)C(=O)N[C@@H](CCCCN)C(=O)N[C@H](C(=O)N[C@@H](CC(N)=O)C(=O)N[C@@H](CC(C)C)C(=O)N[C@@H](CCCNC(=N)N)C(=O)N[C@@H](CCC(N)=O)C(=O)N[C@@H](CCCCN)C(=O)N[C@@H](CC(C)C)C(=O)N[C@@H](CC(C)C)C(=O)N[C@@H](CC(N)=O)C(N)=O)C(C)C` [Fl-NoxaB^75-93-C75A] displayed a Kd at GST-Bcl-xL greater than 2000 nM.
For the compound `CC(=O)N[C@@H](CC(C)C)C(=O)N[C@H](C(=O)N[C@@H](Cc1ccccc1)C(=O)N[C@@H](CS)C(=O)N[C@@H](Cc1c[nH]cn1)C(=O)N[C@@H](Cc1ccc(O)cc1)C(=O)N[C@@H](Cc1c[nH]c2ccccc12)C(=O)N[C@@H](C)C(=O)N[C@@H](CCC(N)=O)C(=O)N[C@@H](CC(C)C)C(=O)N[C@@H](CS)C(=O)N[C@@H](CO)C(N)=O)[C@@H](C)O` [Peptide 1] (Ac-LTFCHYWAQLCS-NH2), the cell penetration entry with HeLa cells [1] (relative to DMSO control) was “minimal cell penetration”.
Regarding `CC(=O)N[C@@H](CC(C)C)C(=O)N[C@H](C(=O)N[C@@H](Cc1ccccc1)C(=O)N[C@H]1CSCc2ccc(cn2)-c2ccc(nc2)CSC[C@@H](C(=O)N[C@@H](CO)C(N)=O)NC(=O)[C@H](CC(C)C)NC(=O)[C@H](CCC(N)=O)NC(=O)[C@H](C)NC(=O)[C@H](Cc2c[nH]c3ccccc23)NC(=O)[C@H](Cc2ccc(O)cc2)NC(=O)[C@H](Cc2c[nH]cn2)NC1=O)[C@@H](C)O` [Peptide 1b, LTFC″HYWAQLC″S] (Ac-LTFCHYWAQLCS-NH2; linker 4-11 via CH2(3,3'-bipyridine-6,6')CH2; C-terminus assumed), the cytotoxicity entry in the series on HeLa cells [2] is listed as “did not show any cytotoxicity”. The “increase in mean fluorescence by Bpy cross-linking” value in the series on HeLa cells [1] (over linear counterpart) was roughly 6 fold.
Turning to `CC(=O)N[C@@H](CC(C)C)C(=O)N[C@H](C(=O)N[C@@H](Cc1ccccc1)C(=O)N[C@@H]1CSCc2ccc(cc2)-c2ccc(cc2)CSC[C@@H](C(=O)N[C@@H](CO)C(N)=O)NC(=O)[C@H](CC(C)C)NC(=O)[C@H](CCC(N)=O)NC(=O)[C@H](C)NC(=O)[C@H](Cc2c[nH]c3ccccc23)NC(=O)[C@H](Cc2ccc(O)cc2)NC(=O)[C@H](Cc2c[nH]cn2)NC1=O)[C@@H](C)O` [Peptide 3a, LTFc′HYWAQLC′S] (Ac-LTF[dC]HYWAQLCS-NH2; linker 4-11 via Biphenyl(4,4'-CH2)2), in series [3], the “increase in MDMX activity” value came out at 15 fold.
For the compound `CC[C@H](C)[C@@H]1NC(=O)[C@H](CCCNC(=N)N)NC(=O)[C@H](CCCNC(=N)N)NC(=O)[C@H](CC(C)C)NC(=O)[C@@H](NC(=O)[C@H](C)NC(=O)[C@H](C)NC(C)=O)CSCc2ccc(cc2)-c2ccc(cc2)CSC[C@@H](C(=O)N[C@H](C(=O)N[C@@H](CC(N)=O)C(=O)N[C@@H](CC(C)C)C(=O)N[C@@H](CCCNC(=N)N)C(=O)N[C@@H](CCC(N)=O)C(=O)N[C@@H](CCCCN)C(=O)N[C@@H](CC(C)C)C(=O)N[C@@H](CC(C)C)C(=O)N[C@@H](CC(N)=O)C(N)=O)C(C)C)NC(=O)[C@H](CC(=O)O)NC(=O)CNC1=O` [Peptide 5a], the “enhancement in percent helicity” value in [4] is reported as “roughly 2 fold”. Further, the IC50 against Mcl-1 [5] was 75 nM; at GST-Mcl-1, 18 ± 6 nM. On GST-Mcl-1 (compared to the parent linear peptide), the “increase in activity in FPA” value is given as 67 fold.
`CC[C@H](C)[C@@H]1NC(=O)[C@H](CCCNC(=N)N)NC(=O)[C@H](CCCNC(=N)N)NC(=O)[C@H](CC(C)C)NC(=O)[C@@H](NC(=O)[C@H](C)NC(=O)[C@H](C)NC(C)=O)CSCc2ccc(cn2)-c2ccc(nc2)CSC[C@@H](C(=O)N[C@H](C(=O)N[C@@H](CC(N)=O)C(=O)N[C@@H](CC(C)C)C(=O)N[C@@H](CCCNC(=N)N)C(=O)N[C@@H](CCC(N)=O)C(=O)N[C@@H](CCCCN)C(=O)N[C@@H](CC(C)C)C(=O)N[C@@H](CC(C)C)C(=O)N[C@@H](CC(N)=O)C(N)=O)C(C)C)NC(=O)[C@H](CC(=O)O)NC(=O)CNC1=O` [Peptide 5b]: in [4], the “enhancement in percent helicity” value is “roughly 2 fold”. On chymotrypsin, this compound registered a half-life at 0.208 mM of 22 min. Also, the half-maximal inhibitory concentration (IC50) on Mcl-1 [5] was found to be 25 nM; on GST-Mcl-1, 45 ± 9 nM.
Consider “LTFCRYWARLCS (LTFCRYWARLCS-NH2; linker 4-11 via BMA (inferred); not fully specified) [Peptide 2, linear arginine-substituted dicysteine PDI analog]”, for which the “increase in mean fluorescence / permeability by arginine substitution” value in the series on HeLa cells [1] (compared to charge-neutral counterpart) stood at 2.5 fold.
For the compound “NoxaA-(16-41): BH3 peptide derived from mouse Noxa (RAELPPEFAAQLRKIGDKVYCTWSAP; UniProt Q9JM54 16-41, looked up, fragment)”, the IC50 with Mcl-1 [6] was 87 nM.
For the compound “NoxaB-(68-93): BH3 peptide derived from mouse Noxa (PADLKDECAQLRRIGDKVNLRQKLLN; UniProt Q9JM54 68-93, looked up, fragment)”, the IC50 in the series with Mcl-1 [6] was 109 nM.

As a reminder, the Kd is a measure of binding affinity in units of concentration. The low end stands for higher affinity, the high end for lower affinity. As usually defined, the IC50 is the midpoint of a concentration-inhibition curve. By half-life is commonly meant how long it takes for the measured level to halve. Low readings indicate rapid decline, high ones slow decline.
